In PMC7145717, “A nucleotide-dependent oligomerization of the Escherichia coli replication initiator DnaA requires residue His136 for remodeling of the chromosomal origin” (Nucleic Acids Research, 2019):

Experiments:
[1] = target: T1, DnaA (Escherichia coli replication initiator DnaA) (Escherichia coli, UniProt P03004); assay: nitrocellulose filter retention assay; conditions: read-out: K D (ATP binding)
T1 construct: full-length, residues 1-467, 10X-histidine-tagged, recombinant from plasmid pZL411, Ni-NTA purified (SAXS samples also Sephacryl-300 gel filtration), ~52 kDa monomer
T1 sequence (P03004 1-467): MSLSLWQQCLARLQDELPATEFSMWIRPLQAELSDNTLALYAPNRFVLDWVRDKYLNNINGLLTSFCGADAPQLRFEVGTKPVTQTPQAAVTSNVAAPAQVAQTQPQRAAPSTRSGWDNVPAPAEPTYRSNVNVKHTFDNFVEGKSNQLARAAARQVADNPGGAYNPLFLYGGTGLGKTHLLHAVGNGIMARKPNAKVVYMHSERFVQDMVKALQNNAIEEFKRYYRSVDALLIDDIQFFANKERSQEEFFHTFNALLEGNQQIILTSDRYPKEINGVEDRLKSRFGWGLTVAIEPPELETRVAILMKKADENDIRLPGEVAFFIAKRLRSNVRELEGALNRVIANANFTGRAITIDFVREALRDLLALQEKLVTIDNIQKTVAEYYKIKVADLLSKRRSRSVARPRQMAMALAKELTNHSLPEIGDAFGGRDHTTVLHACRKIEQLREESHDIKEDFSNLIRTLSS
From the text: (§1) nitrocellulose filter retention assay on DnaA (Escherichia coli replication initiator DnaA)

[2] = target: T2, DnaA (Escherichia coli replication initiator DnaA) (Escherichia coli, UniProt P03004, F76A); assay: nitrocellulose filter retention assay; conditions: read-out: K D (ATP binding)
T2 construct: full-length, residues 1-467, 10X-histidine-tagged, recombinant from plasmid pZL411, Ni-NTA purified (SAXS samples also Sephacryl-300 gel filtration), ~52 kDa monomer
T2 sequence (P03004 1-467 F76A): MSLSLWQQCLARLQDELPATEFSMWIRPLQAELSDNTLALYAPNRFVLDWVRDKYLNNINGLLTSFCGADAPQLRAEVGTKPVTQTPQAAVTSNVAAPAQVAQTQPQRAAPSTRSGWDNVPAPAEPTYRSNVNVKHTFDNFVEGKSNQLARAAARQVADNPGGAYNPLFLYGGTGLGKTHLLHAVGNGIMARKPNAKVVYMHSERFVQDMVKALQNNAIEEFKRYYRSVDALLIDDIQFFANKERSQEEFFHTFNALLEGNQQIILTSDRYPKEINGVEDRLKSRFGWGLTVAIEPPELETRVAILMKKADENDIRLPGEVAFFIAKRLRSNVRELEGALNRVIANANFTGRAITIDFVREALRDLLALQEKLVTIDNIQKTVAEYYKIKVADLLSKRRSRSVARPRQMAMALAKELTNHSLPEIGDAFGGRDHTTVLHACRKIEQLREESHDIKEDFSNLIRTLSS
From the text: as §1

[3] = target: T3, DnaA (Escherichia coli replication initiator DnaA) (Escherichia coli, UniProt P03004, F76Y); assay: nitrocellulose filter retention assay; conditions: read-out: K D (ATP binding)
T3 construct: full-length, residues 1-467, 10X-histidine-tagged, recombinant from plasmid pZL411, Ni-NTA purified (SAXS samples also Sephacryl-300 gel filtration), ~52 kDa monomer
T3 sequence (P03004 1-467 F76Y): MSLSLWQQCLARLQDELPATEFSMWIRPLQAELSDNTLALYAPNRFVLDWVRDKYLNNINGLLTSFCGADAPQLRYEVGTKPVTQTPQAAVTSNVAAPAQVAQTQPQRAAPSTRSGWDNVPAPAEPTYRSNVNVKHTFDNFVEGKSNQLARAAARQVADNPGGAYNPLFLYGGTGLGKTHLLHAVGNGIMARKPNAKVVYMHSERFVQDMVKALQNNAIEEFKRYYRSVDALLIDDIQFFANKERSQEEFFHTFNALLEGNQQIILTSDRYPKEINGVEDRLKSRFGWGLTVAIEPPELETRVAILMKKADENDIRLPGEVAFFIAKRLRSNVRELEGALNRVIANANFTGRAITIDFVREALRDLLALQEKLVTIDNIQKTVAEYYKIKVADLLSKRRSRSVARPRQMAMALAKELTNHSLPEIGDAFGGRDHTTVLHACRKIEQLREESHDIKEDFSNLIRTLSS
From the text: as §1

[4] = target: T4, DnaA (Escherichia coli replication initiator DnaA) (Escherichia coli, UniProt P03004, H136A); assay: nitrocellulose filter retention assay; conditions: read-out: K D (ATP binding)
T4 construct: full-length, residues 1-467, 10X-histidine-tagged, recombinant from plasmid pZL411, Ni-NTA purified (SAXS samples also Sephacryl-300 gel filtration), ~52 kDa monomer
T4 sequence (P03004 1-467 H136A): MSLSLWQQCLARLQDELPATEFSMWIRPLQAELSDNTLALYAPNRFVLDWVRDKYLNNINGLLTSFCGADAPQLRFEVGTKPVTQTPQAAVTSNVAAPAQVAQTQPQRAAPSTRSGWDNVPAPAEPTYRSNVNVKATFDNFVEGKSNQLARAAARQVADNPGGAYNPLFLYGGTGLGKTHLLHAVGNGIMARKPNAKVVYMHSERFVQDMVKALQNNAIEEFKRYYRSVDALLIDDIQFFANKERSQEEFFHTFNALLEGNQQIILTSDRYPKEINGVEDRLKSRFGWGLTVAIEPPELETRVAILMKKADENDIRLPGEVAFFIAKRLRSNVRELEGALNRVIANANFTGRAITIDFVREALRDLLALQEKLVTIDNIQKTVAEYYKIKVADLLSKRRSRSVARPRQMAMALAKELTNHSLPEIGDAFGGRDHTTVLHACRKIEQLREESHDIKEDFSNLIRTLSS
From the text: as §1

[5] = target: T5, DnaA (Escherichia coli replication initiator DnaA) (Escherichia coli, UniProt P03004, H136Q); assay: nitrocellulose filter retention assay; conditions: read-out: K D (ATP binding)
T5 construct: full-length, residues 1-467, 10X-histidine-tagged, recombinant from plasmid pZL411, Ni-NTA purified (SAXS samples also Sephacryl-300 gel filtration), ~52 kDa monomer
T5 sequence (P03004 1-467 H136Q): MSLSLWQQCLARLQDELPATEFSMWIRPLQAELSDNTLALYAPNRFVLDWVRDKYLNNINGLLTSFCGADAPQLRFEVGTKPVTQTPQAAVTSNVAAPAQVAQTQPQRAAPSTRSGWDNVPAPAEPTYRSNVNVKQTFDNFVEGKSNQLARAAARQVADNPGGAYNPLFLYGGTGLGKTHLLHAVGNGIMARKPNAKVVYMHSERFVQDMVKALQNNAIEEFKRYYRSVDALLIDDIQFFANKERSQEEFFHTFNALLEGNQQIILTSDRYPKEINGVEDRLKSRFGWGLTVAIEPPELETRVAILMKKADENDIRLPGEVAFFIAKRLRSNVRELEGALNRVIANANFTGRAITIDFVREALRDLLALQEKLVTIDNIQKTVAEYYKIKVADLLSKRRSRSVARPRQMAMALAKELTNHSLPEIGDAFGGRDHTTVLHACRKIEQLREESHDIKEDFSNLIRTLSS
From the text: as §1

[6] = target: T6, DnaA (Escherichia coli replication initiator DnaA) (Escherichia coli, UniProt P03004, Q156E); assay: nitrocellulose filter retention assay; conditions: read-out: K D (ATP binding)
T6 construct: full-length, residues 1-467, 10X-histidine-tagged, recombinant from plasmid pZL411, Ni-NTA purified (SAXS samples also Sephacryl-300 gel filtration), ~52 kDa monomer
T6 sequence (P03004 1-467 Q156E): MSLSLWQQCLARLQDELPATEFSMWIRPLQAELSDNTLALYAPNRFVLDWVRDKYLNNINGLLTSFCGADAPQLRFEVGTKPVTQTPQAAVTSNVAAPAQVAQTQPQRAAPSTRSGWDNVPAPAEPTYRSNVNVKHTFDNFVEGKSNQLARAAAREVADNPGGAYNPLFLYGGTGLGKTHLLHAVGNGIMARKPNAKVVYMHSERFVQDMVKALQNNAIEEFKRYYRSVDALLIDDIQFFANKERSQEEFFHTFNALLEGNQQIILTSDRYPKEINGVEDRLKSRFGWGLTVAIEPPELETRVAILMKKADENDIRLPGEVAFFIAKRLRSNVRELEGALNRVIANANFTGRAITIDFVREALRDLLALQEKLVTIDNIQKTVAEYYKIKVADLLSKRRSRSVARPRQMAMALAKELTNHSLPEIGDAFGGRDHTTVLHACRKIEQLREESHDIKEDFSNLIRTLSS
From the text: as §1

[7] = target: T7, DnaA (Escherichia coli replication initiator DnaA) (Escherichia coli, UniProt P03004, Q156N); assay: nitrocellulose filter retention assay; conditions: read-out: K D (ATP binding)
T7 construct: full-length, residues 1-467, 10X-histidine-tagged, recombinant from plasmid pZL411, Ni-NTA purified (SAXS samples also Sephacryl-300 gel filtration), ~52 kDa monomer
T7 sequence (P03004 1-467 Q156N): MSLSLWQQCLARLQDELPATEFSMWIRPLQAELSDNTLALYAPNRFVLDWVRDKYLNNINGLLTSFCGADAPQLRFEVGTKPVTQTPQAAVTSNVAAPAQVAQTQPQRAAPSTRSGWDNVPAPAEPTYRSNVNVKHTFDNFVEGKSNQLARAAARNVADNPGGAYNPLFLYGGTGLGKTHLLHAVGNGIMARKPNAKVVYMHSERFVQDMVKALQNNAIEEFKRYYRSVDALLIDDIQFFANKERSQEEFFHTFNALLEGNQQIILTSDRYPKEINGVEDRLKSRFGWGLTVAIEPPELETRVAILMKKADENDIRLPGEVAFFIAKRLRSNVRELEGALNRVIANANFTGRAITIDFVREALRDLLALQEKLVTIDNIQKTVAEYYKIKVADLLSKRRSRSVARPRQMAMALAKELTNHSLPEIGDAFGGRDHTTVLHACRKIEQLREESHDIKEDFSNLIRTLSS
From the text: as §1

[8] = target: the molecule itself; assay: cross-linking; amine-specific cross-linker DTSSP; apo or with 0.5 mM ADP, AMP-PNP or ATP; SDS-PAGE and western blot with anti-DnaA antibody

Molecule | Kd [1] [nM] | Kd [2] [nM] | Kd [3] [nM] | Kd [4] [nM] | Kd [5] [nM] | Kd [6] [nM] | Kd [7] [nM] | binding result [8]
Nc1ncnc2c1ncn2[C@@H]1O[C@H](COP(=O)(O)OP(=O)(O)OP(=O)(O)O)[C@@H](O)[C@H]1O [ATP] | 110 ± 30 | 120 ± 30 | 140 ± 30 | 140 ± 40 | 100 ± 20 | 100 ± 20 | 100 ± 20 | 
DnaA(H136A) (natural protein, E. coli, UniProt P03004 1-467, looked up, DnaA, E. coli, amino acid residues 1-467, with H136A; Made by site-directed mutagenesis on pZL411; also called ATP-DnaA(H136A)) MSLSLWQQCLARLQDELPATEFSMWIRPLQAELSDNTLALYAPNRFVLDWVRDKYLNNINGLLTSFCGADAPQLRFEVGTKPVTQTPQAAVTSNVAAPAQVAQTQPQRAAPSTRSGWDNVPAPAEPTYRSNVNVKATFDNFVEGKSNQLARAAARQVADNPGGAYNPLFLYGGTGLGKTHLLHAVGNGIMARKPNAKVVYMHSERFVQDMVKALQNNAIEEFKRYYRSVDALLIDDIQFFANKERSQEEFFHTFNALLEGNQQIILTSDRYPKEINGVEDRLKSRFGWGLTVAIEPPELETRVAILMKKADENDIRLPGEVAFFIAKRLRSNVRELEGALNRVIANANFTGRAITIDFVREALRDLLALQEKLVTIDNIQKTVAEYYKIKVADLLSKRRSRSVARPRQMAMALAKELTNHSLPEIGDAFGGRDHTTVLHACRKIEQLREESHDIKEDFSNLIRTLSS |  |  |  |  |  |  |  | binds
